Measurements taken from patent US10795272B2, “Triphenylamine derivative, and charge transport material and electrophotographic photoreceptor using the same” (TAKASAGO INTERNATIONAL CORPORATION, priority 2016, dated 2020).

How the values were obtained:
[1] = Solubility in tetrahydrofuran; format: physicochemical; details: 25° C.; weight completely dissolved in 1 g of tetrahydrofuran
Description: Compound (1-1) was dissolved in 1 g of tetrahydrofuran at 25° C.
In the same manner as in Example 14, experiments were conducted by using Compound (1-4) or (1-9).
In the same manner as in Example 14, experiments were conducted by using Comparative Compound (5) which was a compound described in Japanese Patent Application Publication No. Hei 3-149560.

Row | SMILES | Solubility [1] [g/g tetrahydrofuran] | melting point [°C]
1 | C(=Cc1ccc(N(c2ccccc2)c2ccc(C=C(c3ccccc3)c3ccccc3)cc2)cc1)c1ccc(C=Cc2ccc(N(c3ccccc3)c3ccc(C=C(c4ccccc4)c4ccccc4)cc3)cc2)cc1 [Comparative Compound (5), reference compound] | 0.03 | –
2 | C(/C=C/c1ccc(/C=C/c2ccc(N(c3ccccc3)c3ccc(/C=C/c4ccc(/C=C/c5ccc(N(c6ccccc6)c6ccc(/C=C/c7ccc(/C=C/C=C(c8ccccc8)c8ccccc8)cc7)cc6)cc5)cc4)cc3)cc2)cc1)=C(c1ccccc1)c1ccccc1 [Compound (1-4)] | 0.13 | 162 to 164
3 | COc1ccc(N(c2ccc(/C=C/c3ccc(/C=C/C=C(c4ccccc4)c4ccccc4)cc3)cc2)c2ccc(/C=C/c3ccc(/C=C/c4ccc(N(c5ccc(/C=C/c6ccc(/C=C/C=C(c7ccccc7)c7ccccc7)cc6)cc5)c5ccc(OC)cc5)cc4)cc3)cc2)cc1 [Compound (1-9)] | 0.14 | 222 to 224

Continued, values first:

Row | Solubility [1] [g/g tetrahydrofuran] | melting point [°C] | SMILES
4 | 0.16 | 178 to 180 | Cc1ccc(N(c2ccc(/C=C/c3ccc(/C=C/C=C(c4ccccc4)c4ccccc4)cc3)cc2)c2ccc(/C=C/c3ccc(/C=C/c4ccc(N(c5ccc(C)cc5)c5ccc(/C=C/c6ccc(/C=C/C=C(c7ccccc7)c7ccccc7)cc6)cc5)cc4)cc3)cc2)cc1 [Compound (1-1)]
5 | – | 161 to 163 | Cc1ccc(N(c2ccc(/C=C/c3ccc(/C=C/C=C(c4ccccc4)c4ccccc4)cc3)cc2)c2ccc(/C=C/c3ccc(/C=C/c4ccc(N(c5ccc(/C=C/c6ccc(/C=C/C=C(c7ccccc7)c7ccccc7)cc6)cc5)c5ccc(C)cc5C)cc4)cc3)cc2)c(C)c1 [Compound (1-7)]
6 | – | 255 to 257 | Cc1ccc(C(=C/C=C/c2ccc(/C=C/c3ccc(N(c4ccc(/C=C/c5ccc(/C=C/c6ccc(N(c7ccc(/C=C/c8ccc(/C=C/C=C(c9ccc(C)cc9)c9ccc(C)cc9)cc8)cc7)c7ccc(C)cc7C)cc6)cc5)cc4)c4ccc(C)cc4C)cc3)cc2)c2ccc(C)cc2)cc1 [Compound (1-17)]
